# In US9539221B2, “Method of treating airway diseases with β-adrenergic inverse agonists” (EGB ADVISORS, LLC, priority 2003, dated 2017):
# “Also recorded” adds a separate entry of the source. Like-named read-outs stand apart in the source and are kept apart here.
# What was measured:
# [1] = test system: asthmatic mice; details: same mouse asthma model, Callaerts-Vegh et al. 2004, cited from earlier work
# [2] = test system: Phospholipase C (PLC-β1); assay: Ratio of phospholipase C to actin by immunoblotting in cultured tracheal smooth muscle cells of treated mice; assay type: cell-based; details: asthmatic mice, chronic nadolol high dose treatment
# From the text: Cultured tracheal smooth muscle cells were obtained from mice exposed to the following treatments: NS/NC=nonasthmatic, non-challenged mice; S/C=asthmatic mice; Sal.Ac=asthmatic mice, acute salbutamol treatment; Sal.Ch=asthmatic mice, chronic salbutamol treatment; Nad.Ac=asthmatic mice, acute nadolol high dose treatment; and Nad.Ch=asthmatic mice, chronic nadolol high dose treatment.
# After airway function experiments, the trachea were surgically removed from anesthetized mice that had been treated with drugs or vehicle. The trachea was minced and the cells plated and grown in culture. The smooth muscle cells grow faster and take over the culture dish. The cells were grown in medium which contained the drugs used in the treatment or vehicle controls. Phospholipase C (PLC-β1) was determined by immunoblotting with an antibody specific for the enzyme. Actin was used as a loading control and the amount of PLC-β1 was expressed as a ratio to actin.
# The phospholipase C protein level was measured in these cultured cells and compared with the level of the structural protein actin as a baseline. The enzyme phospholipase C plays a key role in the pathway leading to asthmatic symptoms, as it cleaves a phosphodiester bond in membrane phospholipids, resulting in the formation of a 1,2-diglyceride. […]
# [3] = biological target: β2-adrenergic receptor (Mus musculus, UniProt P18762); assay: β-adrenergic receptor density in lung membranes of treated asthmatic mice by ICYP radioligand binding; assay type: in vivo
# Description: (§1) β2-adrenergic receptor numbers were measured in asthmatic mice as follows. […] Mice were sacrificed and lung membranes were isolated as follows. Frozen lung tissue was homogenized in an ice-cold buffer containing 0.32 M sucrose and 25 mM Tris (pH 7.4) using a polytron (Pro 200, Pro Scientific, Inc.). The homogenate was centrifuged at 1000×g for 10 min at 4° C. The resulting supernatant was centrifuged at 40,000×g for 20 min at 4° C. The pellet was suspended in an ice-cold 25 mM Tris-HCl buffer (pH 7.4) and centrifuged at 40,000×g for 20 min at 4° C. The final pellet was suspended in 200 μL of 25 mM Tris-HCl (pH 7.4); membrane protein concentration was determined by BCA protein assay kit. […] The incubation was done at 37° C. for 2 h and terminated by rapid vacuum filtration through glass fiber filters. The filters were washed three times with 250 μL of cold wash buffer (25 mM Tris-HCl, pH 7.4) and the radioactivity determined in a counter. […] Receptor densities are expressed as femtomoles of sites per milligram of protein. Bmax is determined by nonlinear regression of the saturation binding curves.
# [4] = test system: β2-adrenergic receptor; assay: as above; assay type: in vivo; details: 2 days of administration
# Description: as §1
# [5] = test system: β2-adrenergic receptor; assay: Immunohistochemistry of β2-adrenergic receptor levels in lung sections; assay type: in vivo, mice; details: chronic treatment versus untreated animals; epifluorescent microscopy
# Description: The mice were sacrificed and the lungs excised. […] Lungs were embedded in OCT and 12-μm sections cut with a Tissue-Tek II cryostat. […] After 3 washes in PBS, the slides were blocked with 5% milk in PBS for 1 h, and then incubated overnight with anti-β2-adrenergic receptor antibody (1:200, Santa Cruz Biotechnology) in blocking solution. Slides were washed in PBS and incubated with secondary antibody (1:200, Cy3 goat anti-rabbit, 16 h at 4° C.). […] After washing with PBS, coverslips were mounted and viewed by epifluorescent microscopy.
# [6] = test system: asthmatic mice; assay: Airway resistance (Raw) response to methacholine provocation in murine model of asthma (forced oscillation); assay type: in vivo, Balb/cJ mice
# Description: Balb/cJ mice aged 6 weeks (Jackson Animal Laboratory, Bar Harbor, Me.) were housed under specific pathogen-free conditions and fed a chicken ovalbumin-free diet. The Animal Research Ethics Boards of both the University of Houston and the Baylor College of Medicine approved all experiments reported here. […] Mice were sensitized with subcutaneous injection of 25 μg of ovalbumin adsorbed to aluminum hydroxide on protocol days 2, 9, and 16. Subsequently, mice were given 50 μL of saline solution containing 25 μg of ovalbumin intranasally, on a daily basis, from protocol days 23 through 27. A group of ovalbumin-sensitized saline-challenged mice serves as controls for systemic sensitization and respiratory challenges with ovalbumin. Prior to intranasal administrations, mice were sedated with halothane vapor.
# To examine the effects of duration of β-adrenergic ligand therapy on the phenotype of the murine model of asthma, the experimental drugs were administered either acutely or chronically to different groups of asthmatic mice.
# Asthmatic mice on acute therapy were given a single intravenous bolus infusion of either β-adrenergic drug or normal saline on protocol day 28, 15 minutes before airway responsiveness to methacholine was determined. […] Asthmatic mice on chronic therapy were treated with the β-adrenergic drug during protocol days 1 to 28. […] These concentrations were chosen based on those producing therapeutic effects in mice in previously published studies. The non-asthmatic mice were fed normal chow.
# On protocol day 28, mice were anesthetized, tracheotomized, and connected to a computer-controlled small animal ventilator (Flexivent, Scientific Respiratory Equipment, Inc., Montreal, Canada). Airway resistance (Raw) was measured using the forced oscillation technique. The cellular composition of bronchoalveolar lavage fluid (BALF) was also determined.
# To induce airway constriction, a solution containing 150 μg/mL of acetyl-α-methylcholine chloride (methacholine) (Sigma Chemical, St. Louis, Mo.) was infused intravenously at constant rates using a syringe infusion pump (Raze Scientific Instruments, Stanford, Conn.). […] Each methacholine dose was administered for 3 to 5 minutes, during which data were sampled at 1-minute intervals and then averaged.
# The complex input impedance of the respiratory system was computed and the value of the real part of respiratory system impedance at 19.75 Hz was taken to reflect the magnitude of airway resistance (Raw). To examine the degree of airway responsiveness of each animal, the values for Raw as a function of methacholine doses were plotted. The largest value for Raw achieved in response to methacholine stimulation was referred to as Rawpeak. For mice that achieved a plateau in the methacholine dose-Raw response curve, the ED50 was calculated by linear interpolation using the GraphPad Prism4 (GraphPad Software, Inc.). […] The Bonferroni test was used to examine the statistical differences between experimental groups. The effects of acute drug treatments on baseline respiratory system mechanics were assessed using a two-tailed paired t-test. A value of P<0.05 was considered significant.
# For these experiments, salbutamol was used for chronic administration at 0.5 mg/kg/day with a minipump and for acute administration at 0.15 mg/kg by i.v. bolus 15 minutes prior to challenge. Alprenolol was used at a high dose of 7200 ppm in chow or at a low dose of 720 ppm in chow. Carvedilol was used at a high dose of 2400 ppm in chow or at a low dose of 720 ppm in chow.
# [7] = test system: sensitized and allergen-challenged mice; assay: Acute nadolol with aminophylline, methacholine-induced bronchoconstriction; assay type: in vivo; details: nadolol 0.72 mg/kg i.p. 15 minutes prior to methacholine challenge
# Description: Mice were sensitized to the allergen ovalbumin as described in Example 1. […] At time point 1 (time=−10 min) baseline airway resistance of the mice was determined. At time point 2 (time=−5 min) methacholine was infused into mice to reach their EC70.
# Chain of β2-adrenergic receptor (Mus musculus, UniProt P18762) (P18762 whole entry): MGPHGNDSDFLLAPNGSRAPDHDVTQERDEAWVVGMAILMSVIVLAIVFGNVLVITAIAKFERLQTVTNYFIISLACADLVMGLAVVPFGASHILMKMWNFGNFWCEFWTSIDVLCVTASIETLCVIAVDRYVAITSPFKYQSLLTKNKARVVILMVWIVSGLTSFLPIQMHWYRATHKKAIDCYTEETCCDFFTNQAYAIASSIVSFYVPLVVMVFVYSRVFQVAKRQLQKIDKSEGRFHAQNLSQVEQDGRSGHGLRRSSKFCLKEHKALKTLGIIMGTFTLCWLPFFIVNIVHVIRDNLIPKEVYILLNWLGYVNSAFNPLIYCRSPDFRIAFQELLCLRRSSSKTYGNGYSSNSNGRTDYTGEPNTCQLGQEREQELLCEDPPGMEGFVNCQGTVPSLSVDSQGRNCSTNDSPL
structure (smiles),measurement,setting,value
"CC(C)(C)NCC(O)COc1cccc2c1CC(O)C(O)C2 (centres unmarked) [Nadolol, nadolol]",airway hyperresponsiveness,[1]; administered acutely,worsens airway hyperresponsiveness
same,airway hyperresponsiveness,[1]; administered chronically,prevents airway hyperresponsiveness
same,ratio of phospholipase C to actin,[2],significantly decreases the activity of phospholipase C
same,Bmax (β-adrenergic receptor density),"[3]; 15 Minutes drug treatment, lung membranes of asthmatic mice, mean±SEM",181.9 ± 48.28 femtomoles of sites per milligram of protein
same,βmax (β-adrenergic receptor density),"[3]; 28 Days drug treatment, lung membranes of asthmatic mice, mean±SEM",785.5 ± 154.8 femtomoles of sites per milligram of protein
same,Increased β2AR density,[3]; 28 days of administration,showed an increase in receptor density
same,increase of the level of β2-adrenergic receptors over the non-treated mice,"[3]; chronic administration, versus untreated methacholine-challenged asthmatic mice",nearly eightfold increase
same,Increased β2AR density,[4],yes
same,Increased β2AR density,[4]; listed as nadolol,showed an increase in receptor density
same,labeling with anti-β2-adrenergic receptor antibodies in lungs,[5],considerably more intense; also recorded: increase in β-adrenergic receptor density
same,airway resistance (Raw),[6]; 1 ppm in chow,identical to the untreated mice
same,"airway responsiveness to methacholine provocation (airway resistance, Raw)","[6]; asthmatic mice, chronic: 28 days (chow; salbutamol by osmotic minipump)","produced a decrease in airway responsiveness, which was more pronounced than that caused by carvedilol treatment; also recorded: reduced the responsiveness of asthmatic mice to methacholine provocation"
same,protection from airway hyperresponsiveness,"[6]; chronic administration, high and low dose in chow (Example 6)",providing protection from airway hyperresponsiveness
same,baseline airway resistance,[7],same baseline airway resistance as non-drug treated sensitized and allergen-challenged mice
